Measured values as given in ChEMBL document CHEMBL1201862, “PubChem BioAssay data set” (2004).
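Cultured in 96-well plates, cells were exposed to test compound for 48 hours across five concentrations. The concentration for 50% growth inhibition is given as GI50.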 Activity calls are given as the source filed them. Rule as the data show it: active = GI50 up to about 1.1 µM and inactive = higher.

Assays:
Assay in all cases: NCI tumour cell line growth inhibition, 48 h
M14 = system: M14
K562 = system: K562
OVCAR-8 = system: OVCAR-8
MOLT-4 = system: MOLT-4
UACC-62 = system: UACC-62
TK-10 = system: TK-10
SK-MEL-5 = system: SK-MEL-5
NCI-H23 = system: NCI-H23
SK-MEL-28 = system: SK-MEL-28
OVCAR-5 = system: OVCAR-5
NCI-H226 = system: NCI-H226
HCT-15 = system: HCT-15
HT-29 = system: HT-29
UACC-257 = system: UACC-257
HL-60 = system: HL-60
COLO 205 = system: COLO 205
SK-OV-3 = system: SK-OV-3

Row | SMILES | GI50 (M14) | GI50 (K562) | GI50 (OVCAR-8) | GI50 (MOLT-4) | GI50 (UACC-62) | GI50 (TK-10) | GI50 (SK-MEL-5) | GI50 (NCI-H23) | GI50 (SK-MEL-28) | GI50 (OVCAR-5) | GI50 (NCI-H226) | GI50 (HCT-15) [µM] | GI50 (HT-29) | GI50 (UACC-257) | GI50 (HL-60) | GI50 (COLO 205) | GI50 (SK-OV-3)
1 | C/C(CCn1[nH]c(=O)ccc1=O)=N\Nc1ccc([N+](=O)[O-])cc1[N+](=O)[O-] | 26 µM (inactive) | 20.6 µM (inactive) | 93.1 µM (inactive) | > 100 µM (inactive) | 5.9 µM (inactive) | > 100 µM (inactive) | 41.8 µM (inactive) | > 100 µM (inactive) | > 100 µM (inactive) | > 100 µM (inactive) | > 100 µM (inactive) | 23.6 | > 100 µM (inactive) | > 100 µM (inactive) | > 100 µM (inactive) |  | 
2 | O=C1c2ccc3c4ccccc4n(-c4ccccc4)c3c2C(=O)N1c1ccc(Cl)cc1 | > 100 µM (inactive) | > 100 µM (inactive) | > 100 µM (inactive) | > 100 µM (inactive) | > 100 µM (inactive) | > 100 µM (inactive) | > 100 µM (inactive) | 8.95 µM (inactive) |  | > 100 µM (inactive) | > 100 µM (inactive) | > 100 | 29 µM (inactive) | > 100 µM (inactive) | > 100 µM (inactive) | > 100 µM (inactive) | > 100 µM (inactive)
3 | COC(=O)c1cc2c(nc1C)-c1ccccc1OS2(=O)=O | > 100 µM (inactive) | > 100 µM (inactive) | 79.8 µM (inactive) | > 100 µM (inactive) | > 100 µM (inactive) | 83.2 µM (inactive) | > 100 µM (inactive) | > 100 µM (inactive) |  | > 100 µM (inactive) | > 100 µM (inactive) | > 100 | > 100 µM (inactive) | > 100 µM (inactive) | > 100 µM (inactive) | > 100 µM (inactive) | > 100 µM (inactive)
4 | CSc1nc2c(c(O)c(C)c(=O)n2C2OC(COC(C)=O)C(OC(C)=O)C(OC(C)=O)C2OC(C)=O)c(=O)n1C (stereo unspecified) | > 100 µM (inactive) | > 100 µM (inactive) | > 100 µM (inactive) |  | > 100 µM (inactive) | > 100 µM (inactive) | > 100 µM (inactive) | > 100 µM (inactive) | > 100 µM (inactive) | > 100 µM (inactive) | > 100 µM (inactive) | > 100 | > 100 µM (inactive) | > 100 µM (inactive) | > 100 µM (inactive) | > 100 µM (inactive) | > 100 µM (inactive)
5 | c1ccc(CCN2CCc3[nH]c4ccccc4c3C2)cc1 | 17.1 µM (inactive) | 16.9 µM (inactive) | 20.4 µM (inactive) | 26.5 µM (inactive) | > 10 µM (inactive) | 24.3 µM (inactive) | 16.5 µM (inactive) | 30.5 µM (inactive) | 20 µM (inactive) | 20 µM (inactive) | 29.8 µM (inactive) | 23.4 | 14.1 µM (inactive) | 14.9 µM (inactive) | 19 µM (inactive) | > 10 µM (inactive) | 35.8 µM (inactive)
6 | CN1CC(=O)N(C)c2[nH]cnc2C1=O | > 100 µM (inactive) | > 100 µM (inactive) | > 100 µM (inactive) | > 100 µM (inactive) | > 100 µM (inactive) | > 100 µM (inactive) | > 100 µM (inactive) | > 100 µM (inactive) | > 100 µM (inactive) | > 100 µM (inactive) | > 100 µM (inactive) | > 100 | > 100 µM (inactive) |  | > 100 µM (inactive) | > 100 µM (inactive) | > 100 µM (inactive)
7 | Cc1ccc(NC(=O)C2C3C=CC(O3)C2C(=O)O)cc1 (stereo unspecified) | > 100 µM (inactive) | > 100 µM (inactive) | > 100 µM (inactive) | > 100 µM (inactive) | > 100 µM (inactive) | > 100 µM (inactive) | > 100 µM (inactive) | > 100 µM (inactive) | > 100 µM (inactive) | > 100 µM (inactive) | > 100 µM (inactive) | > 100 | 19.8 µM (inactive) | 87.1 µM (inactive) | 61.5 µM (inactive) | 45 µM (inactive) | > 100 µM (inactive)
8 | CC1(C)C(c2ccccc2)C12CCC1(C2=O)C(c2ccccc2)C1(C)C (stereo unspecified) | 23.3 µM (inactive) | 20 µM (inactive) | 34.1 µM (inactive) | 18.9 µM (inactive) | 32 µM (inactive) | 34.5 µM (inactive) | 18.7 µM (inactive) | 18.9 µM (inactive) | 27.2 µM (inactive) | 24.7 µM (inactive) | 17.9 µM (inactive) | 24.2 | 16.1 µM (inactive) | 17.9 µM (inactive) | 20.1 µM (inactive) | 18.8 µM (inactive) | 
9 | O=C1c2cccc3cc([N+](=O)[O-])cc(c23)C(=O)N1NC1=NCCN1 | > 100 µM (inactive) | > 100 µM (inactive) | > 100 µM (inactive) | > 100 µM (inactive) | > 100 µM (inactive) | > 100 µM (inactive) | > 100 µM (inactive) | > 100 µM (inactive) | > 100 µM (inactive) | > 100 µM (inactive) | > 100 µM (inactive) | > 100 | > 100 µM (inactive) | > 100 µM (inactive) | > 100 µM (inactive) | > 100 µM (inactive) | > 100 µM (inactive)
